Laboratory results from patent EP0535626A1, “Use of 4-amino-1-(2-pyridyl)piperidines as anti-convulsivant and anti-epileptic agents” (SANOFI, priority 1991, dated 1993).

Experiments:
[1] = system: convulsions provoquées par électrochoc; assay: Electroshock-induced convulsions test in mice; format: in vivo, souris; conditions: Mus musculus, ip, 0.5 h; Swiss female mice, intraperitoneal 30 minutes before the shock (12 volts, 0,4 secondes, corneal electrodes); read-out: DE₅₀ (doses protégeant 50% des animaux)
Excerpt: (§1) La nouvelle activité anticonvulsivante des composés de formule (I), a été mise en évidence en évaluant les effets des composés (I) dans le test des convulsions provoquées par électrochoc chez la souris et dans le test des convulsions provoquées par le pentylénététrazole chez la souris selon la méthode décrite par C.S. Goodman, M. Singh Grewal, W.C. Brown et E.A. Swinyard dans J. Pharmacol. Exp. Ther. 108, 168-176, (1953).
(§2) Pour ces tests on a utilisé des souris Swiss femelles d'un poids corporel de 22 à 26 g, réparties en lot de 10 animaux chacun. Une semaine avant l'expérimentation, chaque lot de 10 a été mis en cage, gardé dans une pièce à température constante (21°C ± 1°C), en cycle jour/nuit, avec nourriture et boisson à volonté. Les produits de formule (I) à tester ainsi que le pentylénététrazole ont été mis en solution dans de l'eau distillée. Le volume d'injection des produits utilisés a été de 0,4 ml pour 20 g de poids corporel. • · Convulsions provoquées par le pentylénététrazole. Les composés de formule (I) ont été administrés par voie intrapéritonéale 30 minutes avant l'administration par voie intrapéritonéale de 130 mg/kg de pentylénététrazole (dose nécessaire pour que 80% des souris contrôlées présentent une crise convulsive). […]

[2] = system: convulsions provoquées par le pentylénététrazole; assay: Pentylenetetrazole-induced convulsions test in mice; format: in vivo, souris; conditions: Mus musculus, ip, 0.5 h; Swiss female mice, intraperitoneal 30 minutes before 130 mg/kg pentylénététrazole intraperitoneal; read-out: DE₅₀ (doses protégeant 50% des animaux)
Excerpt: as §1, §2

Q: What does the source list for `NC1CCN(c2cccc(Cl)n2)CC1` [4-amino-1-(6-chloro-2-pyridyl)pipéridine]?
A: ED50 [1]: < 3 mg/kg; ED50 [2]: < 10 mg/kg
